Data reported in US8362050B2, “Compounds and methods for modulating G protein-coupled receptors” (IRM LLC, priority 2008, dated 2013).
Like-named read-outs stand apart in the source and are kept apart here.

Target: T1, Human GPR120 (Homo sapiens, UniProt Q5NUL3)
T1 construct: Ga16 (promiscuous G protein) fusion partner; expressed in transfected cells
T1 sequence (Q5NUL3 with tags, fused parts or gaps): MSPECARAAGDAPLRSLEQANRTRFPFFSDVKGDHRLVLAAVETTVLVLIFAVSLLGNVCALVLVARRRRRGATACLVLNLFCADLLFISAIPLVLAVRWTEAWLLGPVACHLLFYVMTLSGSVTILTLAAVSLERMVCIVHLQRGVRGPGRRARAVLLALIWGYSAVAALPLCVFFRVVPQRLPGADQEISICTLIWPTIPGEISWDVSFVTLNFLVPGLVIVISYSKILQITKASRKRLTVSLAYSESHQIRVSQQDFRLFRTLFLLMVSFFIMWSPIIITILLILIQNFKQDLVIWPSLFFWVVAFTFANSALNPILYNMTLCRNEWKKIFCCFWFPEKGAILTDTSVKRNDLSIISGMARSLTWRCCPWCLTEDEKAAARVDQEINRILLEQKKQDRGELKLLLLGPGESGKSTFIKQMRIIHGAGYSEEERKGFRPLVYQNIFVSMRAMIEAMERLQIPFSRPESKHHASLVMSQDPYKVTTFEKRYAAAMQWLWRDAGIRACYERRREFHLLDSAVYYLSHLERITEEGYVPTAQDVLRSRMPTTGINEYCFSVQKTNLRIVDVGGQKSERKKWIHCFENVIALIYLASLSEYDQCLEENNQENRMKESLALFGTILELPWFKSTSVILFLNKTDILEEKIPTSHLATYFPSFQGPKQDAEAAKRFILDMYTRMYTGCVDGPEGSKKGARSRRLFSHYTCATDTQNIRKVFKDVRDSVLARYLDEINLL
Assay: FLIPR assay: agonist-induced calcium mobilization in HEK293-GPR120-Ga16 cells
Assay type: cell-based
Settings: for EC50: GPR120 activation, calcium mobilization, HEK293-GPR120-Ga16 cells; for Emax: % enhancement of the test compound relative to a known compound, read-out: % Efficiency
Procedure: Human GPR120 stable cell-line was generated in HEK293 cells. GPR120 (Accession number BC101175) is fused to a promiscuous G protein, Ga16. The expression plasmid is transfected into HEK293 cells using Fugene6 following manufacturer's instruction. Stable cell-lines are generated following drug selection.
FLIPR (Fluorimetric Imaging Plate Reader, Molecular Devices) assays are performed to measure agonist-induced calcium mobilization in the GPR120-expressing cells. One day before the FLIPR assay, HEK293-GPR120-Ga16 cells are seeded into poly-D-lysine coated black-wall-clear bottom 384 well plates (Falcon) at 25,000 cells per well in 40 μl DMEM supplemented with 1% of FBS. The cells are incubated overnight at 37° C. in a humidified incubator. The medium is aspirated on the day of the FLIPR assay. The cells are incubated with 50 μl/well of the assay buffer (HBSS, 20 mM HEPES, 2.5 mM probenecid, pH7.4) containing Fluo-4 NM dye (Invitrogen cat# F36205) at 37° C. for 45 minutes, and then equilibrated at room temperature for 30 minutes. Compounds are dissolved in DMSO and diluted to desired concentrations with assay buffer. Fluorescent output is measured immediately following compound addition (12.5 μl/well) on the FLIPR machine.
An EC50 value was calculated using the change of fluorescent intensity from the reaction initiation. […] In some examples, compounds provided herein have EC50 values from 0.1 μM to 5 μM, while in other examples from 0.5 μM to 5 μM.
The EC50 value in those experiments is given as that concentration of the test compound in question that provoke a response halfway between the baseline and maximum responses. In certain examples compounds of Formula (I) have EC50 values from 0.001 μM to 5 μM. In other examples, compounds of Formula (I) have EC50 values from 0.001 μM to 4 μM. In other examples, compounds of Formula (I) have EC50 values from 0.001 μM to 3 μM. In other examples, compounds of Formula (I) have EC50 values from 0.001 μM to 2 μM. In other examples, compounds of Formula (I) have EC50 values from 0.001 μM to 1 μM. In other examples, compounds of Formula (I) have EC50 values from 0.001 μM to 0.5 μM. […] In other examples, compounds of Formula (I) have EC50 values from 0.001 μM to 0.1 μM.
The % efficiency in those experiments is given as that % enhancement of the test compound in question relative to a known compound. In certain examples compounds of Formula (I) have a % efficiency values from 50% to 150%. In other examples, compounds of Formula (I) have a % efficiency values from 55% to 150%. In other examples, compounds of Formula (I) have a % efficiency values from 60% to 150%. In other examples, compounds of Formula (I) have a % efficiency values from 65% to 150%. In other examples, compounds of Formula (I) have a % efficiency values from 70% to 150%. In other examples, compounds of Formula (I) have a % efficiency values from 75% to 150%. In other examples, compounds of Formula (I) have a % efficiency values from 80% to 150%. In other examples, compounds of Formula (I) have a % efficiency values from 85% to 150%. In other examples, compounds of Formula (I) have a % efficiency values from 90% to 150%. In other examples, compounds of Formula (I) have a % efficiency values from 95% to 150%. In other examples, compounds of Formula (I) have a % efficiency values from 100% to 150%.

Row | EC50 (read-out: EC50 Range) | Emax | EC50 (read-out: EC50) | Compound
1 | 500 to 1000 nM |  |  | COc1cccc(-c2noc(-c3cccc(C(=O)O)c3)n2)c1 [Compound 53, 3-(3-(3-methoxyphenyl)-1,2,4-oxadiazol-5-yl)benzoic acid]
2 | 1000 to 5000 nM | 68.9% | 1400 nM | COc1ccc(-n2cc(-c3cccc(C(=O)O)c3)nn2)cc1 [Compound 54, 3-(1-(4-methoxyphenyl)-1H-1,2,3-triazol-4-yl)benzoic acid]
3 | 1000 to 5000 nM |  |  | COc1ccc(-c2cn(-c3cccc(C(=O)O)c3)nn2)cc1 [Compound 55, 3-(4-(4-methoxyphenyl)-1H-1,2,3-triazol-1-yl)benzoic acid]
4 | 250 to 500 nM | 60.4% | 290 nM | COc1ccc(-c2nc(-c3cccc(C(=O)O)c3)no2)cc1 [Compound 56, 3-(5-(4-methoxyphenyl)-1,2,4-oxadiazol-3-yl)-benzoic acid]
5 | 1000 to 5000 nM | 53.7% | 1340 nM | Cc1ccc(-c2cn(-c3cccc(C(=O)O)c3)nn2)cc1 [Compound 57, 3-(4-p-tolyl-1H-1,2,3-triazol-1-yl)benzoic acid]
6 | 1000 to 5000 nM |  |  | O=C(O)c1cccc(-n2cc(-c3ccc(C(F)(F)F)cc3)nn2)c1 [Compound 58, 3-(4-(4-(trifluoromethyl)phenyl)-1H-1,2,3-triazol-1-yl)benzoic acid]
7 | 1000 to 5000 nM |  |  | O=C(O)c1cccc(-n2cc(-c3ccc(Cl)cc3)nn2)c1 [Compound 59, 3-(4-(4-chlorophenyl)-1H-1,2,3-triazol-1-yl)benzoic acid]
8 | 1000 to 5000 nM |  |  | O=C(O)c1cccc(-n2cc(-c3ccccc3F)nn2)c1 [Compound 60, 3-(4-(2-fluorophenyl)-1H-1,2,3-triazol-1-yl)benzoic acid]
9 | 500 to 1000 nM |  |  | CCc1ccc(-c2cn(-c3cccc(C(=O)O)c3)nn2)cc1 [Compound 61, 3-(4-(4-ethylphenyl)-1H-1,2,3-triazol-1-yl)benzoic acid]
10 | 250 to 500 nM |  |  | O=C(O)c1cccc(-n2cc(-c3ccc(F)cc3F)nn2)c1 [Compound 62, 3-(4-(2,4-difluorophenyl)-1H-1,2,3-triazol-1-yl)benzoic acid]
11 | 1000 to 5000 nM |  |  | O=C(O)c1cccc(-n2cc(-c3ccc(Br)cc3)nn2)c1 [Compound 63, 3-(4-(4-bromophenyl)-1H-1,2,3-triazol-1-yl)benzoic acid]
12 | 500 to 1000 nM | 69% | 878 nM | CC(C)c1ccc(-n2cc(-c3cccc(C(=O)O)c3)nn2)cc1 [Compound 64, 3-(1-(4-isopropylphenyl)-1H-1,2,3-triazol-4-yl)benzoic acid]
13 | 1000 to 5000 nM |  |  | CCc1ccc(-c2cn(-c3cc(OC)cc(C(=O)O)c3)nn2)cc1 [Compound 65, 3-(4-(4-ethylphenyl)-1H-1,2,3-triazol-1-yl)-5-methoxybenzoic acid]
14 | 500 to 1000 nM |  |  | CCc1ccc(-c2cn(-c3cc(F)cc(C(=O)O)c3)nn2)cc1 [Compound 66, 3-(4-(4-ethylphenyl)-1H-1,2,3-triazol-1-yl)-5-fluorobenzoic acid]
15 | 100 to 250 nM |  |  | Cc1ccc(-n2cc(-c3cccc(C(=O)O)c3)nn2)c(F)c1 [Compound 67, 3-(1-(2-fluoro-4-methylphenyl)-1H-1,2,3-triazol-4-yl)benzoic acid]
16 | > 5000 nM |  |  | CCc1ccc(-c2cn(-c3ccc(Cl)c(C(=O)O)c3)nn2)cc1 [Compound 68]
17 | 1000 to 5000 nM |  |  | CCc1ccc(-c2cn(-c3ccc(F)c(C(=O)O)c3)nn2)cc1 [Compound 69, 5-(4-(4-ethylphenyl)-1H-1,2,3-triazol-1-yl)-2-fluorobenzoic acid]
18 | 1000 to 5000 nM |  |  | CCc1ccc(-c2cn(-c3cc(C(=O)O)ccc3F)nn2)cc1 [Compound 70, 3-(4-(4-ethylphenyl)-1H-1,2,3-triazol-1-yl)-4-fluorobenzoic acid]
